Results from ChEMBL document CHEMBL1150014, “DISCOVERY OF A NOVEL CLASS OF BK CHANNEL OPENERS: ENANTIOSPECIFIC SYNTHESIS AND BK CHANNEL OPENING ACTIVITY OF 3-(5-CHLORO-2-HYDROXYPHENYL)-1,3-DIHYDRO-3-HYDROXY-6-(TRIFLUOROMETHYL)-2H-INDOL-2-ONE” (Bioorg Med Chem Lett, 1997).

Molecular target: Calcium-activated potassium channel subunit alpha-1 (Mus musculus) (UniProt Q08460)
Test: Effect on outward K+ current using two-electrode voltage clamp recording from Xenopus laevis oocyte expressing cloned mSlo at 30 uM
Format: functional

Chain of Calcium-activated potassium channel subunit alpha-1 (Mus musculus) (Q08460 whole entry): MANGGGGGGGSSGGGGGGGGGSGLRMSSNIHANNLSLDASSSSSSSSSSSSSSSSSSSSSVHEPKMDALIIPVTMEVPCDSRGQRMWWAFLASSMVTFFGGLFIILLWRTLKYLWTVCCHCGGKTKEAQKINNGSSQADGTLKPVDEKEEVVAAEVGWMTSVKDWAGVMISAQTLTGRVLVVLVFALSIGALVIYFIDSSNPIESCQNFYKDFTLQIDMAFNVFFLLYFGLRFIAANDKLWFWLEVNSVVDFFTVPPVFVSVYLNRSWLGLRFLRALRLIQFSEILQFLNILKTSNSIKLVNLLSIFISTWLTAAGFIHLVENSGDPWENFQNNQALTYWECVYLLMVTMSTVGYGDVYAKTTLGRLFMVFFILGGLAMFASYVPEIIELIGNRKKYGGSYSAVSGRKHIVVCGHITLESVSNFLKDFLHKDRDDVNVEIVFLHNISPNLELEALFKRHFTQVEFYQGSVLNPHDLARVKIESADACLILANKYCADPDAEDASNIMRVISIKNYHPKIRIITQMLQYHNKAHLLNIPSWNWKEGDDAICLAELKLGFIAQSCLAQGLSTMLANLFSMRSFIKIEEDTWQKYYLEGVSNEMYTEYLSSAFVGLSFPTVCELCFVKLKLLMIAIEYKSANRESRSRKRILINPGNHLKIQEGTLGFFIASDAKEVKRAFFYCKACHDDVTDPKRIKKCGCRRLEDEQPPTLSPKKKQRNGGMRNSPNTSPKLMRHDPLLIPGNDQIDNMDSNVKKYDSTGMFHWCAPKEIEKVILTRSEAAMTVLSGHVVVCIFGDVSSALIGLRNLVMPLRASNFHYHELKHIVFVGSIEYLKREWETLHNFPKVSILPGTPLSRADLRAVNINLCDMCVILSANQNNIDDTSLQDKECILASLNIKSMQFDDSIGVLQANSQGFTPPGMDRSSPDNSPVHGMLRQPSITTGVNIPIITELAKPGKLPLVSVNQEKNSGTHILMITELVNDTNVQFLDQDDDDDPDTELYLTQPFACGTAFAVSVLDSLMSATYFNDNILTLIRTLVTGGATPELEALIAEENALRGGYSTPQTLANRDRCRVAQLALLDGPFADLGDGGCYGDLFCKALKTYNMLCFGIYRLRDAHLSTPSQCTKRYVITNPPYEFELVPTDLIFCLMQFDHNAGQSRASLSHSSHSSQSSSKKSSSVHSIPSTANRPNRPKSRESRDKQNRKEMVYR

Compound	Control
O=c1[nH]c2cc(C(F)(F)F)ccc2n1-c1cc(Cl)ccc1O	148%
O=C1Nc2cc(C(F)(F)F)ccc2C1(O)c1cc(Cl)ccc1O (racemic)	201%

Molecular target: Calcium-activated potassium channel subunit alpha-1 (Mus musculus) (UniProt Q08460)
Test: Effect on outward K+ current using two-electrode voltage clamp recording from Xenopus laevis oocyte expressing cloned mSlo at 20 uM
Format: functional

Compound	Control
O=c1[nH]c2cc(C(F)(F)F)ccc2n1-c1cc(Cl)ccc1O	132%
O=C1Nc2cc(C(F)(F)F)ccc2C1(O)c1cc(Cl)ccc1O (racemic)	131%
O=C1Nc2cc(C(F)(F)F)ccc2C1(O)c1ccccc1O (racemic)	90.4%
O=C1Nc2ccccc2C1(O)c1cc(Cl)ccc1O (racemic)	95.3%
O=C1Nc2cc(C(F)(F)F)ccc2[C@@]1(O)c1cc(Cl)ccc1O (stereo in doubt; (+)-4e)	124%
O=C1Nc2cc(C(F)(F)F)ccc2[C@@]1(O)c1cc(Cl)ccc1O (stereo in doubt; (-)-4e)	141%

Molecular target: Calcium-activated potassium channel subunit alpha-1 (Homo sapiens) (UniProt Q12791)
Sequence (Q12791 whole entry): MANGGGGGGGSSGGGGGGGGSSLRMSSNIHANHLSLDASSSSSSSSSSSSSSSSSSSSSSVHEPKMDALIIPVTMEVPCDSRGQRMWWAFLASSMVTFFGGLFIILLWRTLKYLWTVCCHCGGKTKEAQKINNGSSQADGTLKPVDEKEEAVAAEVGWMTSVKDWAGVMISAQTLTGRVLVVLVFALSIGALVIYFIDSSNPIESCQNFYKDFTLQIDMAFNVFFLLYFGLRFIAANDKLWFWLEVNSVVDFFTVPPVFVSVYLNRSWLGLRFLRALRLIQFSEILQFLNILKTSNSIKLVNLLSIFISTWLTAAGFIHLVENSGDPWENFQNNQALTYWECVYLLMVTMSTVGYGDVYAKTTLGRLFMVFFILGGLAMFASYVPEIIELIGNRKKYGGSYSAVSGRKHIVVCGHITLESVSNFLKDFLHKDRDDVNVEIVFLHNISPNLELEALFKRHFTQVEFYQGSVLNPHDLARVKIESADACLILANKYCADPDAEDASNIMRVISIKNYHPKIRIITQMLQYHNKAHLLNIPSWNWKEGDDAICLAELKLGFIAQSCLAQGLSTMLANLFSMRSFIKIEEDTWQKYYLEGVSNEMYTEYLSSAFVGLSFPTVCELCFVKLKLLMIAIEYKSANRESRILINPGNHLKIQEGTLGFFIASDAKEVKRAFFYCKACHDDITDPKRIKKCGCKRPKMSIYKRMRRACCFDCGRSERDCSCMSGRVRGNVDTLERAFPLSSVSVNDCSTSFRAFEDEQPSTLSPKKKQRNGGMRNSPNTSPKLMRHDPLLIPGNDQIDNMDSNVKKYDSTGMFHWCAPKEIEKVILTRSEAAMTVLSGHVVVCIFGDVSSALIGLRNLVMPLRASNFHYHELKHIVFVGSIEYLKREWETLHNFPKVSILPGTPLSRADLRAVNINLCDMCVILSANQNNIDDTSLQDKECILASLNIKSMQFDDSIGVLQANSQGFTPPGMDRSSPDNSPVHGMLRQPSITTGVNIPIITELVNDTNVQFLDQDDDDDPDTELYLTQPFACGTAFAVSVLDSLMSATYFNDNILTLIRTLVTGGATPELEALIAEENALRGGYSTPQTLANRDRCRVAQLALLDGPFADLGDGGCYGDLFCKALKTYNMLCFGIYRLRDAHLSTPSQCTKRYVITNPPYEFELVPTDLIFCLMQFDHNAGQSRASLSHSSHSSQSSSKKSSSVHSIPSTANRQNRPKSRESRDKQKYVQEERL
Test: Effect on outward K+ current using two-electrode voltage clamp recording from Xenopus laevis oocyte expressing cloned hSlo at 20 uM
Format: functional

Compound	Control
COc1ccc(Cl)cc1C1(O)C(=O)Nc2cc(C(F)(F)F)ccc21 (racemic)	120%
O=C1Nc2cc(C(F)(F)F)ccc2C1(O)c1cccc(Cl)c1 (racemic)	96.7%
COc1ccc(Cl)cc1[C@]1(O)C(=O)Nc2cc(C(F)(F)F)ccc21 (stereo in doubt; (+)-4c)	117%
COc1ccc(Cl)cc1[C@]1(O)C(=O)Nc2cc(C(F)(F)F)ccc21 (stereo in doubt; (-)-4c)	116%
